ChEMBL document CHEMBL3885861, “Open TG-GATES”

Organism: Rattus norvegicus
Experiment: Open TG-GATES - Regimen: Single
Format: toxicity, organism-based, Sprague-Dawley
Parameters: regimen Single, gender Male, age 6 weeks
Conditions: in vivo, po, route gavage; for gamma-GTP / ALP / AST / BUN / CRE / Ca / Cl / DBIL / GLC / IP / K / LDH / Na / PL / RALB / TBIL / TC / TG / TP: tissue Plasma; for APTT / Bas / Eos / Fbg / Ht / MCH / MCHC / MCV / Mono / PT / Plat / RBC / Ret / WBC: tissue Blood; for KIDNEY_L / KIDNEY_R / KIDNEY_TOTAL: tissue Kidney; for LIVER: tissue Liver

CC(=O)Nc1nnc(S(N)(=O)=O)s1 [ACETAZOLAMIDE]
gamma-GTP (0 mg/kg, 24 h, dose level Control): 2.2 IU/L
TERMINAL_BW (60 mg/kg, 3 h, dose level Low): 208.4 g
APTT (60 mg/kg, 3 h, dose level Low): 22.2 s
Bas (60 mg/kg, 3 h, dose level Low): 0%
Eos (60 mg/kg, 3 h, dose level Low): 1%
Fbg (60 mg/kg, 3 h, dose level Low): 313.4 mg/dL
Ht (60 mg/kg, 3 h, dose level Low): 40.8%
MCH (60 mg/kg, 3 h, dose level Low): 21.4 pg
MCHC (60 mg/kg, 3 h, dose level Low): 32.1%
MCV (60 mg/kg, 3 h, dose level Low): 66.9 fL
Mono (60 mg/kg, 3 h, dose level Low): 1.6%
PT (60 mg/kg, 3 h, dose level Low): 16.8 s
Plat (60 mg/kg, 3 h, dose level Low): 125.7 x10_4/uL
RBC (60 mg/kg, 3 h, dose level Low): 610.4 x10_4/ul
Ret (60 mg/kg, 3 h, dose level Low): 8.6%
WBC (60 mg/kg, 3 h, dose level Low): 69.8 x10_2/uL
KIDNEY_L (60 mg/kg, 3 h, dose level Low): 0.9 g
KIDNEY_R (60 mg/kg, 3 h, dose level Low): 1 g
KIDNEY_TOTAL (60 mg/kg, 3 h, dose level Low): 1.9 g
LIVER (60 mg/kg, 3 h, dose level Low): 9.5 g
ALP (60 mg/kg, 3 h, dose level Low): 1527.8 IU/L
AST (60 mg/kg, 3 h, dose level Low): 75.8 IU/L
BUN (60 mg/kg, 3 h, dose level Low): 12.2 mg/dL
CRE (60 mg/kg, 3 h, dose level Low): 0.2 mg/dL
Ca (60 mg/kg, 3 h, dose level Low): 11.1 mg/dL
Cl (60 mg/kg, 3 h, dose level Low): 111.6 meq/L
DBIL (60 mg/kg, 3 h, dose level Low): 0 mg/dL
GLC (60 mg/kg, 3 h, dose level Low): 184.6 mg/dL
IP (60 mg/kg, 3 h, dose level Low): 9.6 mg/dL
K (60 mg/kg, 3 h, dose level Low): 3.9 meq/L
LDH (60 mg/kg, 3 h, dose level Low): 212.8 IU/L
Na (60 mg/kg, 3 h, dose level Low): 141.4 meq/L
PL (60 mg/kg, 3 h, dose level Low): 142.2 mg/dL
RALB (60 mg/kg, 3 h, dose level Low): 3.4 g/dL
TBIL (60 mg/kg, 3 h, dose level Low): 0.018 mg/dL
TC (60 mg/kg, 3 h, dose level Low): 88 mg/dL
TG (60 mg/kg, 3 h, dose level Low): 28.2 mg/dL
TP (60 mg/kg, 3 h, dose level Low): 5.9 g/dL
gamma-GTP (60 mg/kg, 3 h, dose level Low): 1.4 IU/L
TERMINAL_BW (60 mg/kg, 6 h, dose level Low): 202.8 g
APTT (60 mg/kg, 6 h, dose level Low): 23 s
Bas (60 mg/kg, 6 h, dose level Low): 0%
Eos (60 mg/kg, 6 h, dose level Low): 1%
Fbg (60 mg/kg, 6 h, dose level Low): 336.6 mg/dL
Ht (60 mg/kg, 6 h, dose level Low): 42.5%
MCH (60 mg/kg, 6 h, dose level Low): 20.9 pg
MCV (60 mg/kg, 6 h, dose level Low): 65.6 fL
Mono (60 mg/kg, 6 h, dose level Low): 3%
PT (60 mg/kg, 6 h, dose level Low): 16.8 s
Plat (60 mg/kg, 6 h, dose level Low): 120.9 x10_4/uL
RBC (60 mg/kg, 6 h, dose level Low): 648 x10_4/ul
Ret (60 mg/kg, 6 h, dose level Low): 8.7%
WBC (60 mg/kg, 6 h, dose level Low): 98.5 x10_2/uL
KIDNEY_L (60 mg/kg, 6 h, dose level Low): 0.9 g
KIDNEY_R (60 mg/kg, 6 h, dose level Low): 0.9 g
KIDNEY_TOTAL (60 mg/kg, 6 h, dose level Low): 1.8 g
LIVER (60 mg/kg, 6 h, dose level Low): 8.4 g
ALP (60 mg/kg, 6 h, dose level Low): 1445.8 IU/L
AST (60 mg/kg, 6 h, dose level Low): 72.8 IU/L
BUN (60 mg/kg, 6 h, dose level Low): 11.8 mg/dL
CRE (60 mg/kg, 6 h, dose level Low): 0.2 mg/dL
Ca (60 mg/kg, 6 h, dose level Low): 11 mg/dL
Cl (60 mg/kg, 6 h, dose level Low): 113 meq/L
DBIL (60 mg/kg, 6 h, dose level Low): 0 mg/dL
GLC (60 mg/kg, 6 h, dose level Low): 187.4 mg/dL
IP (60 mg/kg, 6 h, dose level Low): 9.6 mg/dL
K (60 mg/kg, 6 h, dose level Low): 4.2 meq/L
LDH (60 mg/kg, 6 h, dose level Low): 177.4 IU/L
Na (60 mg/kg, 6 h, dose level Low): 139.4 meq/L
PL (60 mg/kg, 6 h, dose level Low): 138.2 mg/dL
RALB (60 mg/kg, 6 h, dose level Low): 3.3 g/dL
TBIL (60 mg/kg, 6 h, dose level Low): 0.024 mg/dL
TC (60 mg/kg, 6 h, dose level Low): 83 mg/dL
TG (60 mg/kg, 6 h, dose level Low): 27.2 mg/dL
TP (60 mg/kg, 6 h, dose level Low): 5.9 g/dL
gamma-GTP (60 mg/kg, 6 h, dose level Low): 1 IU/L
TERMINAL_BW (60 mg/kg, 9 h, dose level Low): 205.8 g
APTT (60 mg/kg, 9 h, dose level Low): 21.4 s
Bas (60 mg/kg, 9 h, dose level Low): 0%
Eos (60 mg/kg, 9 h, dose level Low): 0.8%
Fbg (60 mg/kg, 9 h, dose level Low): 337.8 mg/dL
Ht (60 mg/kg, 9 h, dose level Low): 41.7%
MCH (60 mg/kg, 9 h, dose level Low): 20.5 pg
MCHC (60 mg/kg, 9 h, dose level Low): 31.4%
MCV (60 mg/kg, 9 h, dose level Low): 65.2 fL
Mono (60 mg/kg, 9 h, dose level Low): 1.8%
PT (60 mg/kg, 9 h, dose level Low): 16.7 s
Plat (60 mg/kg, 9 h, dose level Low): 125.8 x10_4/uL
RBC (60 mg/kg, 9 h, dose level Low): 640.2 x10_4/ul
Ret (60 mg/kg, 9 h, dose level Low): 8.7%
WBC (60 mg/kg, 9 h, dose level Low): 76.9 x10_2/uL
KIDNEY_L (60 mg/kg, 9 h, dose level Low): 0.9 g
KIDNEY_R (60 mg/kg, 9 h, dose level Low): 0.9 g
KIDNEY_TOTAL (60 mg/kg, 9 h, dose level Low): 1.8 g
LIVER (60 mg/kg, 9 h, dose level Low): 8.5 g
ALP (60 mg/kg, 9 h, dose level Low): 1425.8 IU/L
AST (60 mg/kg, 9 h, dose level Low): 59.8 IU/L
BUN (60 mg/kg, 9 h, dose level Low): 13.8 mg/dL
CRE (60 mg/kg, 9 h, dose level Low): 0.2 mg/dL
Ca (60 mg/kg, 9 h, dose level Low): 11.1 mg/dL
Cl (60 mg/kg, 9 h, dose level Low): 112.8 meq/L
DBIL (60 mg/kg, 9 h, dose level Low): 0 mg/dL
GLC (60 mg/kg, 9 h, dose level Low): 190.8 mg/dL
IP (60 mg/kg, 9 h, dose level Low): 9.5 mg/dL
K (60 mg/kg, 9 h, dose level Low): 4 meq/L
LDH (60 mg/kg, 9 h, dose level Low): 158.2 IU/L
Na (60 mg/kg, 9 h, dose level Low): 140 meq/L
PL (60 mg/kg, 9 h, dose level Low): 133.4 mg/dL
RALB (60 mg/kg, 9 h, dose level Low): 3.3 g/dL
TBIL (60 mg/kg, 9 h, dose level Low): 0.026 mg/dL
TC (60 mg/kg, 9 h, dose level Low): 81.8 mg/dL
TG (60 mg/kg, 9 h, dose level Low): 35.4 mg/dL
TP (60 mg/kg, 9 h, dose level Low): 5.9 g/dL
gamma-GTP (60 mg/kg, 9 h, dose level Low): 1 IU/L
TERMINAL_BW (60 mg/kg, 24 h, dose level Low): 217.9 g
APTT (60 mg/kg, 24 h, dose level Low): 20.2 s
Bas (60 mg/kg, 24 h, dose level Low): 0%
Eos (60 mg/kg, 24 h, dose level Low): 0.8%
Fbg (60 mg/kg, 24 h, dose level Low): 303.8 mg/dL
Ht (60 mg/kg, 24 h, dose level Low): 40.5%
MCH (60 mg/kg, 24 h, dose level Low): 20.9 pg
MCHC (60 mg/kg, 24 h, dose level Low): 33.3%
MCV (60 mg/kg, 24 h, dose level Low): 62.6 fL
Mono (60 mg/kg, 24 h, dose level Low): 1.6%
PT (60 mg/kg, 24 h, dose level Low): 16.7 s
Plat (60 mg/kg, 24 h, dose level Low): 117.7 x10_4/uL
RBC (60 mg/kg, 24 h, dose level Low): 647 x10_4/ul
Ret (60 mg/kg, 24 h, dose level Low): 7.7%
WBC (60 mg/kg, 24 h, dose level Low): 86.4 x10_2/uL
KIDNEY_L (60 mg/kg, 24 h, dose level Low): 0.9 g
KIDNEY_R (60 mg/kg, 24 h, dose level Low): 1 g
KIDNEY_TOTAL (60 mg/kg, 24 h, dose level Low): 1.9 g
LIVER (60 mg/kg, 24 h, dose level Low): 9.8 g
ALP (60 mg/kg, 24 h, dose level Low): 1708.2 IU/L
AST (60 mg/kg, 24 h, dose level Low): 61.2 IU/L
BUN (60 mg/kg, 24 h, dose level Low): 20 mg/dL
CRE (60 mg/kg, 24 h, dose level Low): 0.1 mg/dL
Ca (60 mg/kg, 24 h, dose level Low): 10.9 mg/dL
Cl (60 mg/kg, 24 h, dose level Low): 106.8 meq/L
DBIL (60 mg/kg, 24 h, dose level Low): 0 mg/dL
GLC (60 mg/kg, 24 h, dose level Low): 179.4 mg/dL
IP (60 mg/kg, 24 h, dose level Low): 7.5 mg/dL
K (60 mg/kg, 24 h, dose level Low): 4 meq/L
LDH (60 mg/kg, 24 h, dose level Low): 156.8 IU/L
Na (60 mg/kg, 24 h, dose level Low): 142.6 meq/L
PL (60 mg/kg, 24 h, dose level Low): 136.2 mg/dL
RALB (60 mg/kg, 24 h, dose level Low): 3.2 g/dL
TBIL (60 mg/kg, 24 h, dose level Low): 0.01 mg/dL
TC (60 mg/kg, 24 h, dose level Low): 73.2 mg/dL
TG (60 mg/kg, 24 h, dose level Low): 109.6 mg/dL
